The supplement of paper PMC10307832

Compound: C=CCn1c(=O)c2cnc(Nc3ccc(N4CCN(C)CC4)cc3)nc2n1-c1cccc(C(C)(C)O)n1 [Adavosertib] + O=C(CCCCCCC(=O)Nc1ccccc1)NO [Vorinostat] (partner 1 µM)
Assay: relative viability (nuclei count vs DMSO), 5 days (fraction); higher = more cells survive
Details: first compound 0.01 µM
Outline: (§1)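 Medians of duplicate plates are given as relative viability. That measure is the nuclei count in treated wells divided by the count in vehicle wells. Counts were taken on 4× images of lung cancer cell lines in 1536-well plates, 5 days after pin-tool dosing the day after seeding with one drug alone or a fixed anchor-drug dose plus five library-drug doses (not always all listed) in √10 steps.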

Compared with EPLC-272H, H3255 is higher in relative viability: 0.384 for the first, 0.763 for the second.

First: HARA
Second: HCC-15
The relative viability of the first is lower: 0.485 for the first, 0.908 for the second.

Going from HCC-44 to HCC-78, the relative viability falls from 1.09 to 0.492.

Going from HCC-366 to HCC-827, the relative viability rises from 0.353 to 0.716.

Going from HOP-62 to LC-2-ad, the relative viability rises from 0.689 to 0.708.

Going from LCLC-97TM1 to LCLC-103H, the relative viability rises from 0.809 to 0.834.

Going from LK-2 to LOU-NH91, the relative viability rises from 0.265 to 0.882.

First: LU99A
Second: LXF-289
The relative viability of the first is lower: 0.485 for the first, 0.795 for the second.

First: NCI-H23
Second: NCI-H322M
The relative viability of the first is lower: 0.627 for the first, 0.782 for the second.

Going from NCI-H358 to NCI-H441, the relative viability rises from 0.622 to 0.848.

NCI-H1648 gave a relative viability of 0.498.

Same assay, conditions: first compound 0.03162 µM

Compared with 201T, A-427 is lower in relative viability: 1.01 for the first, 0.865 for the second.

Going from ABC-1 to BEN, the relative viability falls from 1.26 to 0.553.

Compared with CAL-12T, COR-L23 is lower in relative viability: 0.889 for the first, 0.406 for the second.

Going from COR-L 105 to ChaGo-K-1, the relative viability falls from 0.848 to 0.74.

Compared with EKVX, EPLC-272H is lower in relative viability: 0.718 for the first, 0.481 for the second.

First: H3255
Second: HARA
The relative viability of the first is higher: 0.908 for the first, 0.629 for the second.

First: HCC-15
Second: HCC-44
The relative viability of the first is lower: 0.823 for the first, 1.06 for the second.

First: HCC-78
Second: HCC-366
The relative viability of the first is higher: 0.437 for the first, 0.411 for the second.

First: HCC-827
Second: HOP-62
The relative viability of the first is higher: 0.868 for the first, 0.653 for the second.

Going from IA-LM to LC-2-ad, the relative viability falls from 0.904 to 0.661.

First: LCLC-97TM1
Second: LCLC-103H
The relative viability of the first is lower: 0.71 for the first, 0.78 for the second.

Going from LK-2 to LOU-NH91, the relative viability rises from 0.362 to 0.99.

Going from LU99A to LXF-289, the relative viability rises from 0.486 to 0.791.

Compared with NCI-H23, NCI-H322M is higher in relative viability: 0.469 for the first, 0.842 for the second.

First: NCI-H358
Second: NCI-H441
The relative viability of the first is lower: 0.597 for the first, 0.829 for the second.

NCI-H1648 showed a relative viability of 0.407.

Same assay, conditions: first compound 0.1 µM

First: 201T
Second: A-427
The relative viability of the first is higher: 0.95 for the first, 0.831 for the second.

First: ABC-1
Second: BEN
The relative viability of the first is higher: 1.1 for the first, 0.669 for the second.

Compared with CAL-12T, COR-L23 is lower in relative viability: 0.821 for the first, 0.386 for the second.

First: COR-L 105
Second: ChaGo-K-1
The relative viability of the first is higher: 0.898 for the first, 0.779 for the second.

Compared with EKVX, EPLC-272H is lower in relative viability: 0.697 for the first, 0.281 for the second.

Going from H3255 to HARA, the relative viability falls from 0.828 to 0.592.

First: HCC-15
Second: HCC-44
The relative viability of the first is lower: 0.86 for the first, 1.09 for the second.

Going from HCC-78 to HCC-366, the relative viability falls from 0.473 to 0.319.

Going from HCC-827 to HOP-62, the relative viability falls from 0.873 to 0.733.

First: IA-LM
Second: LC-2-ad
The relative viability of the first is higher: 1.07 for the first, 0.736 for the second.

Going from LCLC-97TM1 to LCLC-103H, the relative viability falls from 0.77 to 0.755.

Compared with LK-2, LOU-NH91 is higher in relative viability: 0.351 for the first, 0.908 for the second.

First: LU99A
Second: LXF-289
The relative viability of the first is lower: 0.462 for the first, 0.768 for the second.

First: NCI-H23
Second: NCI-H322M
The relative viability of the first is lower: 0.401 for the first, 0.722 for the second.

Compared with NCI-H358, NCI-H441 is higher in relative viability: 0.637 for the first, 0.881 for the second.

Cell Line NCI-H1648 has a relative viability of 0.419.

Same assay, conditions: first compound 0.3162 µM

First: 201T
Second: A-427
The relative viability of the first is higher: 1.05 for the first, 0.705 for the second.

Compared with ABC-1, BEN is lower in relative viability: 1.44 for the first, 0.592 for the second.

Going from CAL-12T to COR-L23, the relative viability falls from 0.741 to 0.166.

Compared with COR-L 105, ChaGo-K-1 is higher in relative viability: 0.677 for the first, 0.741 for the second.

Going from EKVX to EPLC-272H, the relative viability falls from 0.682 to 0.14.

Compared with H3255, HARA is lower in relative viability: 1 for the first, 0.587 for the second.

First: HCC-15
Second: HCC-44
The relative viability of the first is lower: 0.829 for the first, 1.07 for the second.

Going from HCC-78 to HCC-366, the relative viability falls from 0.42 to 0.219.

Going from HCC-827 to HOP-62, the relative viability falls from 0.885 to 0.62.

Compared with IA-LM, LC-2-ad is lower in relative viability: 1.12 for the first, 0.704 for the second.

Going from LCLC-97TM1 to LCLC-103H, the relative viability rises from 0.573 to 0.739.

First: LK-2
Second: LOU-NH91
The relative viability of the first is lower: 0.306 for the first, 0.896 for the second.

Going from LU99A to LXF-289, the relative viability rises from 0.307 to 0.735.

Going from NCI-H23 to NCI-H322M, the relative viability rises from 0.185 to 0.564.

Going from NCI-H358 to NCI-H441, the relative viability rises from 0.219 to 0.72.

Cell Line NCI-H1648 has a relative viability of 0.532.

Compound: COc1nc(N)nc2c1ncn2[C@@H]1O[C@H](CO)[C@@H](O)[C@@H]1O [Nelarabine] + Cc1cc(Nc2cc(N3CCN(C)CC3)nc(Sc3ccc(NC(=O)C4CC4)cc3)n2)n[nH]1 [Tozasertib] (partner 0.1 µM)
Assay: as above
Details: first compound 0.01 µM
Outline: as §1

First: 201T
Second: A-427
The relative viability of the first is higher: 1.12 for the first, 0.181 for the second.

First: ABC-1
Second: BEN
The relative viability of the first is lower: 0.233 for the first, 0.566 for the second.

Going from CAL-12T to COR-L23, the relative viability falls from 0.358 to 0.199.

Compared with COR-L 105, ChaGo-K-1 is lower in relative viability: 0.356 for the first, 0.237 for the second.

Going from EKVX to EPLC-272H, the relative viability falls from 0.463 to 0.219.

First: HARA
Second: HCC-15
The relative viability of the first is lower: 0.119 for the first, 0.48 for the second.

Going from HCC-44 to HCC-78, the relative viability falls from 1.27 to 0.492.

First: HCC-366
Second: HCC-827
The relative viability of the first is lower: 0.0929 for the first, 0.499 for the second.
